The structures appear in SMILES notation. Values after ≈ are worked out from the molar mass of the structure shown. Read-outs that look alike come from different tables or passages of the source.

Series [1] in a line: Solubility assessment (UHPLC-UV of supernatant, target 10 mg/ml). Format: physicochemical. The method in brief: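 Peptides at 10 mg/ml (purity-corrected) in 100 mM phosphate pH 7.4, optionally with 2.7 mg/ml m-cresol; gentle agitation 1 h, then 5° C. overnight (24 h). Supernatant after 15 min centrifugation at 2500 RCF quantified by UHPLC-UV, with sequence-based extinction coefficients.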

Series [2] concerns the target T1, human GLP-1 receptor (hGLP-1R) (Homo sapiens, UniProt P43220). As to the kind of experiment: In vitro cellular cAMP assay for GLP-1 receptor efficacy (HEK-293 cell line over-expressing receptor). Format: cell-based. As to conditions: HEK-293, 0.1% BSA. Background: Cyclic AMP is a second messenger, typically raised through Gs and lowered through Gi signalling.
Series [3] has as its target T2, human GIP receptor (hGIPR) (Homo sapiens, UniProt P48546).
T2 sequence (P48546 22-466): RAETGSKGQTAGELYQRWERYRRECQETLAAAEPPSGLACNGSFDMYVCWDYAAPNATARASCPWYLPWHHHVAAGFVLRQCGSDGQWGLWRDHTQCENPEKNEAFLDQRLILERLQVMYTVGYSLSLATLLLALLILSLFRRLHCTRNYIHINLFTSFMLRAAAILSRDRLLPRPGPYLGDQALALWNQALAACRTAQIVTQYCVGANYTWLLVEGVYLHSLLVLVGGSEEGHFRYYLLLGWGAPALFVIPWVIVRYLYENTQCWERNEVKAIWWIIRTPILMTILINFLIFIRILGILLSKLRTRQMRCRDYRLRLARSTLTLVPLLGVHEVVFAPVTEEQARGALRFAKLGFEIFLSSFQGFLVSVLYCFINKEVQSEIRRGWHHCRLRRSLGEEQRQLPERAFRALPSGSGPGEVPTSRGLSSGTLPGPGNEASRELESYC
In words: In vitro cellular cAMP assay for GIP receptor efficacy (HEK-293 cell line over-expressing receptor). It counts as cell-based.

The target in a further series is T3, human GIP receptor (Homo sapiens, UniProt P48546).
T3 construct: human adipocytes endogenously expressing the human GIP receptor; host or cells: human preadipocytes (Lonza) differentiated to adipocytes
T3 sequence (P48546 22-466): T2 sequence (P48546 22-466)
As to the kind of experiment: In vitro cellular cAMP assay for GIP receptor efficacy (human adipocytes). It counts as cell-based. As to conditions: for EC50: read-out: hGIPR EC50; for Emax: read-out: hGIPR Emax. The gist of the method:
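cAMP is read by HTRF (665/620 nm ratio, 1 h after reagents in lysis buffer) following 30 min compound exposure at room temperature. Cells are human preadipocyte-derived adipocytes, differentiated 6 days with insulin, dexamethasone, IBMX (200 μM), PPARγ agonist and L-thyroxine, seeded 5000 per well.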

The target in series [4] is T2, human GIP receptor (hGIPR). In words: Binding assay, displacement of [125I]GIP from HEK-293 membranes over-expressing GIPR (SPA). The conditions noted are these: [125I]GIP displacement. The gist of the method:
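Membranes from HEK-293 cells over-expressing human GIPR or GLP-1R, isolated by homogenising, sonicating and ultracentrifuging at 100000×g into HEPES/EDTA/NaCl buffer with protease inhibitors, were used for binding.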
For orientation: Displacement assays read how much labelled ligand stays bound in the presence of the test substance.

The target of series [5] is T1, human GLP-1 receptor (hGLP-1R). In words: Binding assay, displacement of [125I]GLP-1 from HEK-293 membranes over-expressing GLP-1R (SPA). The conditions noted are these: [125I]GLP-1 displacement. Here is the method: (1) Preparation of Membranes from HEK-293 Cells Over-Expressing GIPR or GLP-1R
HEK-293 cells recombinantly over-expressing GIPR or GLP-1R were grown to 50% confluency, washed with warm 1×PBS (Gibco) and detached in HEPES/EDTA-buffer (100 mM HEPES pH 7.5, 5 mM EDTA). Cells were harvested by centrifugation at 4° C. and 3000×g and the pellets were stored at −80° C. until further processing.
After thawing on ice, pellets were resuspended in HEPES/EDTA-buffer and homogenized on ice for 1 min using Ultra-Turray T25. After subsequent sonification the cell debris was removed by centrifugation at 1000×g and 4° C. Supernatants were then ultra-centrifuged at 100000×g and 4° C. under vacuum for 30 min. Pellets were resuspended in HEPES/EDTA/NaCl-buffer (20 mM HEPES, 1 mM EDTA, 150 mM NaCl; add 1 Complete Mini Protease inhibitor cocktail to 10 ml buffer) and protein content was determined via BCA-Protein assay.
(2) Measurement of Binding Activity of Test Compounds to Human GIPR or GLP-1R

The mark [6] stands for this setting: EC50 hGIPR 0.1% BSA, HEK-293, 0.1% BSA.

T1 sequence (P43220 24-463): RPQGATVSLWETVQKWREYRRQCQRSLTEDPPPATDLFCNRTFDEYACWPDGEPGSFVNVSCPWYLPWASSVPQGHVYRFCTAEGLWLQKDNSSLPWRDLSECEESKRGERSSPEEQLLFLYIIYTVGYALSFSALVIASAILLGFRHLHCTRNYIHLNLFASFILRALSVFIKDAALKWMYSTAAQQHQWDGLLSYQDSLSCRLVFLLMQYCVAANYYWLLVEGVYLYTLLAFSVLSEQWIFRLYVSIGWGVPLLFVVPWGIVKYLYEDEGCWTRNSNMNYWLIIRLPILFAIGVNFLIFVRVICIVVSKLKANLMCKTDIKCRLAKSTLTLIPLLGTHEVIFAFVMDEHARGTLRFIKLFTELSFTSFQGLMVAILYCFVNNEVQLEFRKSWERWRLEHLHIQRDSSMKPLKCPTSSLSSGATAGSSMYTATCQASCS

Regarding `CC[C@H](C)[C@H](NC(=O)[C@H](CCCNC(=N)N)NC(=O)[C@H](CC(=O)O)NC(=O)[C@H](CCCCNC(=O)CNC(=O)CNC(=O)CNC(=O)CC[C@H](NC(=O)CCCCCCCCCCCCCCCCC(=O)O)C(=O)O)NC(=O)C(C)(C)NC(=O)[C@@H](NC(=O)[C@H](CO)NC(=O)[C@H](CC(C)C)NC(=O)[C@H](CC(=O)O)NC(=O)[C@H](CO)NC(=O)[C@@H](NC(=O)[C@H](Cc1ccccc1)NC(=O)[C@@H](NC(=O)CNC(=O)[C@H](CCC(=O)O)NC(=O)C(C)(C)NC(=O)[C@@H](N)Cc1ccc(O)cc1)[C@@H](C)O)[C@@H](C)CC)[C@@H](C)CC)C(=O)N[C@@H](Cc1c[nH]cn1)C(=O)N[C@@H](CCC(N)=O)C(=O)NC(C)(C)C(=O)N[C@@H](CCC(=O)O)C(=O)N[C@@H](Cc1ccccc1)C(=O)N[C@H](C(=O)N[C@@H](CCC(=O)O)C(=O)N[C@@H](Cc1c[nH]c2ccccc12)C(=O)N[C@@H](CC(C)C)C(=O)N[C@@H](CC(C)C)C(=O)N[C@@H](C)C(=O)N[C@@H](CCC(N)=O)C(=O)N[C@@H](CCCNC(=N)N)C(=O)NCC(N)=O)[C@@H](C)CC` [SEQ ID NO: 7, H2N-Y-Aib-E-G-T-F-I-S-D-L-S-I-Aib-K[{Gly}3-gGlu-C18OH]-D-R-I-H-Q-Aib-E-F-I-E-W-L-L-A-Q-R-G-NH2], the solubility at 24 h in series [1] (100 mM phosphate buffer pH 7.4 (solubility buffer system A), pH 7.4, Solubility buffer system A: 100 mM phosphate buffer pH 7.4, read-out: Soluble amount) stood at 9100 µg/mL (≈ 2160 µM); in series [1] (pH 7.4, Solubility buffer system C: 100 mM phosphate buffer pH 7.4, 2.7 mg/ml m-cresol, read-out: Soluble amount) it was 4000 µg/mL (≈ 949 µM). Besides, the EC50 was > 10 nM in series [2], 0.00964 nM in series [3] (setting [6]) and 0.4 nM on human GIP receptor. The Emax on human GIP receptor is 121%. Moreover, the IC50 was 0.1 nM in series [4] and 106 nM in series [5].

`CC[C@H](C)[C@H](NC(=O)[C@H](CCCNC(=N)N)NC(=O)[C@H](CC(=O)O)NC(=O)[C@H](CCCCNC(=O)COCCOCCNC(=O)COCCOCCNC(=O)CC[C@H](NC(=O)CCCCCCCCCCCCCCCCC(=O)O)C(=O)O)NC(=O)C(C)(C)NC(=O)[C@@H](NC(=O)[C@H](CO)NC(=O)[C@H](CC(C)C)NC(=O)[C@H](CC(=O)O)NC(=O)[C@H](CO)NC(=O)[C@@H](NC(=O)[C@@](C)(CC)NC(=O)[C@@H](NC(=O)CNC(=O)[C@H](CCC(=O)O)NC(=O)C(C)(C)NC(=O)[C@@H](N)Cc1ccc(O)cc1)[C@@H](C)O)[C@@H](C)CC)[C@@H](C)CC)C(=O)N[C@@H](Cc1c[nH]cn1)C(=O)N[C@@H](CCC(N)=O)C(=O)N[C@@H](CCC(=O)O)C(=O)N[C@@H](CCC(=O)O)C(=O)N[C@@](C)(Cc1ccccc1)C(=O)N[C@H](C(=O)N[C@@H](CCC(=O)O)C(=O)N[C@@H](Cc1c[nH]c2ccccc12)C(=O)N[C@@H](CC(C)C)C(=O)N[C@@H](CC(C)C)C(=O)N[C@@H](C)C(=O)N[C@@H](CCC(N)=O)C(=O)N[C@@H](CCCNC(=N)N)C(=O)NCC(N)=O)[C@@H](C)CC` [SEQ ID NO: 17, H2N-Y-Aib-E-G-T-Iva-I-S-D-L-S-I-Aib-K[{AEEA}2-gGlu-C18OH]-D-R-I-H-Q-E-E-Mph-I-E-W-L-L-A-Q-R-G-NH2] gave a solubility in series [1] (pH 7.4, Soluble amount) of 7400 µg/mL (≈ 1700 µM). Also, the EC50 was > 10 nM in series [2]; 0.0821 nM in series [3] (setting [6]); 0.00137 nM in series [3] (HEK-293, without albumin (0% HSA), read-out: EC50 hGIPR 0% HSA); 0.8 nM on human GIP receptor. In addition, the maximal effect (Emax) on human GIP receptor amounted to 110%. Moreover, the IC50 in series [4] stood at 0.2 nM; in series [5], 935 nM.

For the compound `CC[C@H](C)[C@H](NC(=O)[C@H](Cc1ccccc1)NC(=O)[C@H](CCC(=O)O)NC(=O)C(C)(C)NC(=O)[C@H](CCC(N)=O)NC(=O)[C@H](CCCCNC(=O)COCCOCCNC(=O)COCCOCCNC(=O)CC[C@H](NC(=O)CCCCCCCCCCCCCCCCC(=O)O)C(=O)O)NC(=O)[C@H](CCC(N)=O)NC(=O)[C@H](CCC(=O)O)NC(=O)[C@H](CCC(=O)O)NC(=O)[C@H](CC(C)C)NC(=O)C(C)(C)NC(=O)[C@@H](NC(=O)[C@H](CO)NC(=O)[C@H](CC(C)C)NC(=O)[C@H](CC(=O)O)NC(=O)[C@H](CO)NC(=O)[C@@H](NC(=O)[C@H](Cc1ccccc1)NC(=O)[C@@H](NC(=O)CNC(=O)[C@H](CCC(=O)O)NC(=O)C(C)(C)NC(=O)[C@@H](N)Cc1ccc(O)cc1)[C@@H](C)O)[C@@H](C)CC)[C@@H](C)CC)C(=O)N[C@@H](CCC(=O)O)C(=O)N[C@@H](Cc1c[nH]c2ccccc12)C(=O)N[C@@H](CC(C)C)C(=O)N[C@@H](CC(C)C)C(=O)N[C@@H](C)C(=O)N[C@@H](CCC(N)=O)C(=O)NCC(=O)N1CCC[C@H]1C(=O)N[C@@H](CO)C(=O)N[C@@H](CO)C(=O)NCC(=O)N[C@@H](CCC(=O)O)C(=O)N1CCC[C@H]1C(=O)N1CCC[C@H]1C(=O)N1CCC[C@H]1C(=O)N[C@@H](CO)C(N)=O` [SEQ ID NO: 38, H2N-Y-Aib-E-G-T-F-I-S-D-L-S-I-Aib-L-E-E-Q-K[{AEEA}2-gGlu-C18OH]-Q-Aib-E-F-I-E-W-L-L-A-Q-G-P-S-S-G-E-P-P-P-S-NH2], the solubility at 24 h in series [1] (pH 7.4, Soluble amount) is > 9200 µg/mL. The figures for the EC50 (in series [2]; in series [3] (setting [6]); on human GIP receptor) were > 10 nM, 0.0531 nM and 0.4 nM, respectively. Also, the maximal effect (Emax) on human GIP receptor is 92%. Besides, the IC50 in series [4] was 0.2 nM; in series [5], 73 nM.

`CC[C@H](C)[C@H](NC(=O)[C@H](Cc1ccccc1)NC(=O)[C@H](CCC(=O)O)NC(=O)[C@H](CCC(=O)O)NC(=O)[C@H](CCC(N)=O)NC(=O)[C@H](Cc1c[nH]cn1)NC(=O)[C@@H](NC(=O)[C@H](CCCNC(=N)N)NC(=O)[C@H](CC(=O)O)NC(=O)[C@H](CCCCNC(=O)COCCOCCNC(=O)COCCOCCNC(=O)CC[C@H](NC(=O)CCCCCCCCCCCCCCCCC(=O)O)C(=O)O)NC(=O)C(C)(C)NC(=O)[C@@H](NC(=O)[C@H](CO)NC(=O)[C@H](CC(C)C)NC(=O)[C@H](CC(=O)O)NC(=O)[C@H](CO)NC(=O)[C@@H](NC(=O)[C@H](Cc1ccccc1)NC(=O)[C@@H](NC(=O)CNC(=O)[C@H](CCC(=O)O)NC(=O)C(C)(C)NC(=O)[C@@H](N)Cc1ccc(O)cc1)[C@@H](C)O)[C@@H](C)CC)[C@@H](C)CC)[C@@H](C)CC)C(=O)N[C@@H](CCC(=O)O)C(=O)N[C@@H](Cc1c[nH]c2ccccc12)C(=O)N[C@@H](CC(C)C)C(=O)N[C@@H](CC(C)C)C(=O)N[C@@H](C)C(=O)N[C@@H](CCC(N)=O)C(=O)N[C@@H](CCCNC(=N)N)C(=O)NCC(=O)O` [SEQ ID NO: 13, H2N-Y-Aib-E-G-T-F-I-S-D-L-S-I-Aib-K[{AEEA}2-gGlu-C18OH]-D-R-I-H-Q-E-E-F-I-E-W-L-L-A-Q-R-G-OH] had an EC50 in series [3] (setting [6]) of 0.0285 nM. Further, the IC50 is 0.9 nM in series [4] and 116 nM in series [5].

One may read the EC50 as the concentration that produces a half-maximal response. Usually Emax stands for the maximal effect, on the per cent scale that the assay sets. One may read the IC50 as the midpoint of a concentration-inhibition curve. A low value points to inhibition by little substance.

For the origin of these results see patent US20240360194A1, “New Peptides as Potent and Selective GIP Receptor Agonists” (Sanofi, priority 2021, published 2024).
